Results as given in PubChem BioAssay (NCI).
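All cell lines were grown in 96-well plates and treated with compound for 48 hours. Here, GI50 denotes the concentration required for 50% inhibition of growth. Definition used: TGI = concentration required for complete inhibition of growth.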

Experiments:
Experiment in all cases: NCI anticancer screen, dose series, 48 h
[1] = system: RXF 393 renal
[2] = system: HCC-2998 colon
[3] = system: NCI-H460 lung
[4] = system: A498 renal
[5] = system: SW-620 colon
[6] = system: OVCAR-3 ovarian
[7] = system: ACHN renal
[8] = system: OVCAR-4 ovarian
[9] = system: SF-539 CNS
[10] = system: SNB-75 CNS

Compound	GI50 [1] [µM]	TGI [1] [µM]	GI50 [2] [µM]	TGI [2] [µM]	GI50 [3] [µM]	TGI [3] [µM]	GI50 [4] [µM]	TGI [4] [µM]	GI50 [5] [µM]	TGI [5] [µM]	GI50 [6] [µM]	TGI [6] [µM]	GI50 [7] [µM]	TGI [7] [µM]	GI50 [8] [µM]	TGI [8] [µM]	GI50 [9] [µM]	TGI [9] [µM]	TGI [10] [µM]	GI50 [10] [µM]
COc1cc(-c2cc(/C=C/C(=O)c3ccc(Cl)c(Cl)c3)[nH]n2)cc(OC)c1OC	2.7	12.8	9.56	31.4	4.91	36.6	5.89	43	8.63	79.6	6.99	37.8	21.4	> 100	10.8	50.9	4.31	18.7	–	–
CSc1nc(NC2OC(COC(C)=O)C(OC(C)=O)C(OC(C)=O)C2OC(C)=O)c(-c2csc(N)n2)c(=O)n1C (stereo not drawn)	–	–	–	–	–	> 100	–	> 100	–	> 100	–	> 100	–	> 100	–	55.1	–	> 100	47.8	–
COc1ccc2c(Cl)cc(NC(=O)Nc3c(C)cccc3C)nc2c1	4.97	24.8	> 100	> 100	4.02	> 100	2.9	22.4	38.9	> 100	23.5	> 100	3.59	24.7	–	–	19.8	46.3	6.01	1.47
COc1ccc2c(c1)[n+]([O-])c(-c1ccc(C)cc1)c(N)[n+]2[O-]	–	–	–	–	–	> 100	–	> 100	–	> 100	–	> 100	–	> 100	–	> 100	–	> 100	> 100	–
Oc1cccc(/C=N/Nc2nnc(N/N=C/c3cccc(O)c3)c3ccccc23)c1	–	> 100	–	–	–	> 100	–	–	–	56.8	–	35.8	–	40.7	–	82.6	–	34.6	50.5	–
CC(=O)[CH-]C(=O)c1ccccc1.CC(=O)[CH-]C(=O)c1ccccc1.Cl.[O-]c1ccccn1.[O-]c1ccccn1.[Ti+4]	–	–	> 100	> 100	> 100	> 100	> 100	> 100	> 100	> 100	> 100	> 100	> 100	> 100	> 100	> 100	> 100	> 100	> 100	> 100
CNS(=O)(=O)NN(C)S(=O)(=O)c1ccc2ccccc2c1	–	> 100	–	> 100	–	–	–	> 100	–	> 100	–	–	–	> 100	–	> 100	–	> 100	> 100	–
CC1C[C@]2(C[C@@H](C)C(=O)O2)O[C@@H]2CC3(C)[C@@H]4CCC5C(C)(C)OC(=O)C[C@H]6OO[C@]4(CC[C@]3(C)C12)CC56O (stereo partly drawn)	–	> 100	–	> 100	–	> 100	–	–	–	> 100	–	> 100	–	> 100	–	> 100	–	> 100	> 100	–
O=[N+]([O-])c1ccc(/C=C/c2csnn2)cc1	–	> 100	–	> 100	–	> 100	–	–	–	> 100	–	> 100	–	> 100	–	> 100	–	> 100	–	–
O=c1c(Br)cc2c(-c3ccccc3)c3cc(Br)c(O)c(Br)c3oc-2c1Br	–	> 100	–	> 100	–	> 100	–	> 100	–	> 100	–	> 100	–	> 100	–	63.7	–	> 100	–	–
CC1(C)C=N[N+]2(C)C3C=CC(CC3)C12 (stereo not drawn)	–	> 100	–	> 100	–	> 100	–	> 100	–	–	–	> 100	–	> 100	–	–	–	> 100	> 100	–
Cc1ccc(NC(=S)SCCC(=O)O)cc1	–	> 100	–	> 100	–	> 100	–	> 100	–	> 100	–	> 100	–	> 100	–	> 100	–	> 100	–	–
COc1cc2c(cc1OC)NC(=O)NC(Cc1ccc3c(c1)OCO3)CC2 (stereo not drawn)	–	> 100	–	> 100	–	> 100	–	–	–	> 100	–	> 100	–	> 100	–	> 100	–	–	> 100	–
COc1c(-c2ccc(O)c(O)c2)oc2c(O)c(O)cc(O)c2c1=O	–	–	–	> 100	–	> 100	–	> 100	–	43.9	–	> 100	–	> 100	–	> 100	–	> 100	–	–
CCOC(=O)[C@H]1Nc2ccc([N+](=O)[O-])cc2C2c3ccccc3CC21 (stereo partly drawn)	–	18.3	–	44.2	–	44.7	–	–	–	41.6	–	23.1	–	72.3	–	49.8	–	31.8	> 100	–
COc1cc(C2C3=C(COC3=O)Nc3c2ccc2c3CCCC2)cc2c1OCO2 (stereo not drawn)	–	–	0.052	–	0.0353	15.7	0.0265	0.175	0.0399	> 100	0.0233	0.0518	0.134	> 100	0.121	> 100	0.0331	13.4	14.5	0.0251
CC(/C=C/c1ccccc1)=N\NC(N)=S	–	–	–	79.1	–	> 100	–	44.5	–	> 100	–	66.8	–	> 100	–	–	–	94.5	–	–
Clc1ccc2nc(-c3ccccc3)nc(Cl)c2c1	–	48.6	–	> 100	–	> 100	–	> 100	–	> 100	–	> 100	–	76.9	–	–	–	> 100	59.5	–
CCCCN(CCCC)CCC(O)c1cc2c(Cl)cc(Cl)cc2c2cc(C(F)(F)F)ccc12 (stereo not drawn)	–	–	–	24.2	–	25.5	–	13.8	–	25.7	–	23.7	–	25.6	–	28.5	–	30.1	25.3	–
C/C=C/[C@H]1O[C@@H]2C(=C[C@H]1O)C(=O)O[C@H]2C	18.9	67.7	27.9	55.9	> 92	> 100	–	–	3.19	14.2	18	39.2	7.71	22.9	12.3	33.3	–	3.38	26.4	1.23
